Experimental findings from US10508077B2 (FORMA Therapeutics, Inc., priority 2015, dated 2019) are described below.

Assay [1] concerns the target T1, Full length human recombinant HDAC8 protein (Homo sapiens, UniProt Q9BY41).
T1 construct: Full length human recombinant HDAC8 protein was expressed in baculoviral system; made in house
T1 sequence (Q9BY41 1-377): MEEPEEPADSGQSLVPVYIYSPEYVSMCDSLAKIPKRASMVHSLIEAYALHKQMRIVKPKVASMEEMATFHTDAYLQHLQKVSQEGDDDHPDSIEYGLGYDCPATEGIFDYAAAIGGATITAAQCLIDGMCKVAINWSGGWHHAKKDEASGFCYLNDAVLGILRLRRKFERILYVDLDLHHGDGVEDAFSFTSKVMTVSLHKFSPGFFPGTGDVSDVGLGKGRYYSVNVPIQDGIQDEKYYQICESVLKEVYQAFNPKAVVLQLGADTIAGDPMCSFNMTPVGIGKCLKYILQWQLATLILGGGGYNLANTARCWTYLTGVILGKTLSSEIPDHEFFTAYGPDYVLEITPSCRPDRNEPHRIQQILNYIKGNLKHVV
Put plainly: In vitro histone deacetylase assay: enzymatic HDAC8 assay, electrophoretic mobility shift. In kind it is biochemical. The following applies: substrate RHKK(Ac)-NH2, 1 nM enzyme, compounds listed under IC50 range headings. Put shortly: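 Readout was microfluidic mobility-shift separation of deacetylated product from fluorescent RHKK(Ac)-NH2 substrate (2 µM), after reaction with 1 nM recombinant full-length human HDAC8 at 25 °C, pH 7.5, stopped with SDS. Twelve 3-fold-spaced concentrations tested; product/sum ratios normalized to controls and fitted with a 4-parameter model for IC50.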
On the technique in general: Mobility shift assays separate free from complexed probe on a gel.

In assay [2] the target is T2, Recombinant N-terminal GST tag full-length human HDAC8 (Homo sapiens, UniProt Q9BY41).
T2 construct: Recombinant N-terminal GST tag full-length human HDAC8; purchased SignalChem H90-30G-1000; host or cells: Sf9 insect cells (baculovirus)
T2 sequence (Q9BY41 1-377): T1 sequence (Q9BY41 1-377)
Nature of the assay: HDAC8 probe binding assay, time resolved fluorescence (TRF). The following applies: fluorescein labeled pan-HDAC inhibitor probe, 16 hours incubation, compounds listed under IC50 range headings. Put shortly:
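TR-FRET probe displacement using GST-tagged full-length human HDAC8 (Sf9-expressed, 2.5 nM) with 1.5 nM fluorescein-labelled pan-HDAC inhibitor probe and anti-GST terbium, in HEPES pH 7.5 buffer with GSH, BGG, Triton X-100. Compounds 25 μM–1.3 nM, 10-point; 16 h at room temperature. IC50 from 4-parameter fit of % inhibition versus no-enzyme and DMSO controls.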

Where only a bound is given, the exact number is not on record here.

A word on the IC50: it is the midpoint of a concentration-inhibition curve.

Take `O=C(/C=C/c1ccccc1S(=O)(=O)C1CCN(C(=O)Cc2ccc(Cl)cc2)CC1)NO` [II-29]: the IC50 in assay [1] was below 1000 nM; in assay [2], at most 1000 nM.
`COc1ccc(/C=C/C(=O)NO)c(NC(=O)c2ccccc2Oc2ccc(Cl)cc2F)c1` [II-37, 2-(4-chloro-2-fluorophenoxy)-N-{2-[(1E)-2-(hydroxycarbamoyl)eth-1-en-1-yl]-5-methoxyphenyl}benzamide]: the results for the IC50 in assay [1] and in assay [2] were below 1000 nM and at most 1000 nM, respectively.
